Results from PubChem BioAssay AID1963420 (Molecular Pharmacology Branch, DTP, NCI, 2024).
Each block holds one compound with its values, some of them ahead of it.

Tested on: 494315-158-R-J1-PDC complex spheroid growth, percent test/control
Assay: Anticancer human tumor 494315-158-R-J1-PDC patient-derived soft tissue sarcoma cell line growth inhibition [Asc]
Settings: for IC50: curve of first compound; for viability, T/C: stronger effect = lower value
Description: Multicellular complex tumor spheroid response to apoptosis pathway targeting inhibitors Alrizomadlin, Pelcitoclax, and Dasminapant in combination with a variety of drugs and investigational agents in selected tumor cell lines
The MDM2 inhibitor alrizomadlin, the Bcl-2/Bcl-xL inhibitor pelcitoclax, and the IAPs inhibitor dasminapant were evaluated both individually and in combination with standard of care and investigational anticancer small molecules within a complex spheroid model of solid tumors. . Complex spheroids include a stromal component modeled by human endothelial cells (HUVEC) and fibroblasts modeled by human mesenchymal stem cells (MSCs). The concentration ranges selected for each drug and investigational agent were based upon clinically achievable concentrations if the clinical Cmax of the agent was known.
Compounds. The drugs and investigational agents: alrizomadlin (APG-115; NSC831270), pelcitoclax (APG-1252; NSC835773), dasminapant (APG-1387;NSC834197), TAK-243 (NSC785004), copanlisib (NSC809693), olaparib (NSC753686), talazoparib (NSC767125), cobimetinib (NSC 768068), eltanexor (KPT-8602, NSC 794443), abemaciclib (NSC 768073), sotorasib (NSC818433), adagrasib (NSC 831453), MRTX-1133 (NSC 836407), Iadademestat (ORY1001, NSC 806812), and RMC-4630 (NSC839698), were obtained from the NCI Developmental Therapeutics Program Chemical Repository. The FDA-approved anticancer drug set is available from the Developmental Therapeutics Program at https://dtp.cancer.gov/organization/dscb/obtaining/available plates.htm. […] The stock solutions were prepared in dimethyl sulfoxide (DMSO, Sigma-Aldrich, St. Louis, MO, cat. D2650) at 800-fold the tested concentration and stored at -70 degrees C prior to their use. All drugs and investigational agents were tested over a range starting from a high concentration at or near the clinical Cmax and decreasing in half-log increments. If the clinical Cmax for an agent had not been determined, the highest concentration tested was 10 microM.
The patient-derived cancer (PDC) cell lines include five colon adenocarcinomas: 186277-243-T-J2-PDC, 616215-338-R-J1-PDC, 439559-082-T-J2-PDC, 463943-066-T-J2-PDC, and 519858-162-T-J1-PDC; three pancreatic carcinomas: 323965-272-R-J2-PDC, 521955-158-R6-J3-PDC, and 521955-158-R2-J5-PDC; two uterine sarcomas: 327498-152-R-J2-PDC and 993429-296-R-J1-PDC; two rhabdomyosarcomas: 755483-174-R-J1-PDC and 772245-204-R-J1-PDC; two soft tissue sarcomas: 126254-015-R-J1-PDC and 494315-158-R-J1-PDC; two malignant fibrous histiocytomas: 317291-083-R-J1-PDC and 596521-263-R-J1-PDC; two breast carcinomas: 171881-019-R-J1-PDC and 885512-296-R-J2-PDC; and one ovarian carcinoma: 6556581-035-R-J-PDC were obtained from the NCI PDMR, (https://pdmr.cancer.gov). The established cell lines HSSY-2 synovial sarcoma (RRID:CVCL 8719), SYO-1 synovial sarcoma (RRID:CVCL_7146), MPNST malignant peripheral neural sheath tumor were obtained from the Sloan Kettering Institute. The following established cell lines were purchased from the American Type Culture Collection (ATCC, Manassas, VA), Sor the received from the NCI repository:, PANC-1 pancreatic carcinoma (CRL-1469, RRID:CVCL_0480), OVCAR-5 ovarian carcinoma (RRID:CVCL_1628), OVCAR-8 ovarian carcinoma (RRID:CVCL_1629), , MCF-7 breast carcinoma (CRL-12584, RRID:CVCL_0031), MDA-MB-231 breast carcinoma (CRL-12532, RRID:CVCL_0062), NCI-H1876 small cell lung carcinoma (CRL-5902, RRID:CVCL_1503), NCI-H510A small cell lung carcinoma (HTB-184, RRID:CVCL_1565), NCI-H1417 (CRL-5869, RRID:CVCL_1469), and NCI-H196 small cell lung carcinoma (CRL-5823, RRID:CVCL_1509). Dr. Peter Houghton (Greehey Children's Cancer Research Institute, University of Texas Health Science Center, San Antonio, TX) provided Rh-18 rhabdomyosarcoma (RRID:CVCL_1659). Pooled donor human umbilical vein endothelial cells (HUVEC, Lonza, cat. CC-2519) and human mesenchymal stem cells (hMSC, Lonza, cat. PT-2501) were purchased from Lonza (Walkersville, MD).
Cell Culture. […]

[1] = second compound 0.03 µM, first compound 0.00316 µM
[2] = second compound 0.03 µM, first compound 0.01 µM
[3] = second compound 0.03 µM, first compound 0.0316 µM
[4] = second compound 0.03 µM, first compound 0.1 µM
[5] = second compound 0.0949 µM, first compound 0.00316 µM
[6] = second compound 0.0949 µM, first compound 0.01 µM
[7] = second compound 0.0949 µM, first compound 0.0316 µM
[8] = second compound 0.0949 µM, first compound 0.1 µM
[9] = second compound 0.3 µM, first compound 0.00316 µM
[10] = second compound 0.3 µM, first compound 0.01 µM
[11] = second compound 0.3 µM, first compound 0.0316 µM
[12] = second compound 0.3 µM, first compound 0.1 µM
[13] = second compound 0.949 µM, first compound 0.00316 µM
[14] = second compound 0.949 µM, first compound 0.01 µM
[15] = second compound 0.949 µM, first compound 0.0316 µM
[16] = second compound 0.949 µM, first compound 0.1 µM
[17] = second compound 3 µM, first compound 0.00316 µM
[18] = second compound 3 µM, first compound 0.01 µM
[19] = second compound 3 µM, first compound 0.0316 µM
[20] = second compound 3 µM, first compound 0.1 µM
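Further: compound exposure lasted seven days after spheroids formed for three days.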

IC50 (second compound 0.03 µM): > 1000 nM | IC50 (second compound 0.0949 µM): > 1000 nM | IC50 (second compound 0.3 µM): > 1000 nM | IC50 (second compound 0.949 µM): > 1000 nM | IC50 (second compound 3 µM): > 1000 nM
SMILES: CCN1CCN(Cc2ccc(Nc3ncc(F)c(-c4cc(F)c5nc(C)n(C(C)C)c5c4)n3)nc2)CC1 + CCN1C(C(=O)NC23CCC(C(=O)O)(CC2)CC3)C(c2cccc(Cl)c2F)C2(C(=O)Nc3cc(Cl)ccc32)C12CCCCC2
viability, T/C [1]: 109% | viability, T/C [2]: 108% | viability, T/C [3]: 94.2% | viability, T/C [4]: 112% | viability, T/C (second compound 0.03 µM, first compound 0.316 µM): 105% | viability, T/C (second compound 0.03 µM, first compound 1 µM): 97.2% | viability, T/C [5]: 105% | viability, T/C [6]: 112% | viability, T/C [7]: 121% | viability, T/C [8]: 121% | viability, T/C (second compound 0.0949 µM, first compound 0.316 µM): 106% | viability, T/C (second compound 0.0949 µM, first compound 1 µM): 103% | viability, T/C [9]: 107% | viability, T/C [10]: 104% | viability, T/C [11]: 114% | viability, T/C [12]: 106% | viability, T/C (second compound 0.3 µM, first compound 0.316 µM): 112% | viability, T/C (second compound 0.3 µM, first compound 1 µM): 97.2% | viability, T/C [13]: 111% | viability, T/C [14]: 117% | viability, T/C [15]: 100% | viability, T/C [16]: 99.2% | viability, T/C (second compound 0.949 µM, first compound 0.316 µM): 97.1% | viability, T/C (second compound 0.949 µM, first compound 1 µM): 88.3% | viability, T/C [17]: 110% | viability, T/C [18]: 112% | viability, T/C [19]: 89.1% | viability, T/C [20]: 114% | viability, T/C (second compound 3 µM, first compound 0.316 µM): 100% | viability, T/C (second compound 3 µM, first compound 1 µM): 85%

IC50 (second compound 0.03 µM): 72.6 nM | IC50 (second compound 0.0949 µM): 52.4 nM | IC50 (second compound 0.3 µM): 68.7 nM | IC50 (second compound 0.949 µM): 74.9 nM | IC50 (second compound 3 µM): 79.1 nM
SMILES: NC(=O)C(=Cn1cnc(-c2cc(C(F)(F)F)cc(C(F)(F)F)c2)n1)c1cncnc1 + CCN1C(C(=O)NC23CCC(C(=O)O)(CC2)CC3)C(c2cccc(Cl)c2F)C2(C(=O)Nc3cc(Cl)ccc32)C12CCCCC2
viability, T/C (second compound 0.03 µM, first compound 0.000949 µM): 97% | viability, T/C (second compound 0.03 µM, first compound 0.003 µM): 107% | viability, T/C (second compound 0.03 µM, first compound 0.00949 µM): 84.9% | viability, T/C (second compound 0.03 µM, first compound 0.03 µM): 78.3% | viability, T/C (second compound 0.03 µM, first compound 0.0949 µM): 41% | viability, T/C (second compound 0.03 µM, first compound 0.3 µM): 17.4% | viability, T/C (second compound 0.0949 µM, first compound 0.000949 µM): 96.6% | viability, T/C (second compound 0.0949 µM, first compound 0.003 µM): 96.4% | viability, T/C (second compound 0.0949 µM, first compound 0.00949 µM): 81.6% | viability, T/C (second compound 0.0949 µM, first compound 0.03 µM): 64.4% | viability, T/C (second compound 0.0949 µM, first compound 0.0949 µM): 35.5% | viability, T/C (second compound 0.0949 µM, first compound 0.3 µM): 16.8% | viability, T/C (second compound 0.3 µM, first compound 0.000949 µM): 96.6% | viability, T/C (second compound 0.3 µM, first compound 0.003 µM): 88% | viability, T/C (second compound 0.3 µM, first compound 0.00949 µM): 97.6% | viability, T/C (second compound 0.3 µM, first compound 0.03 µM): 74.8% | viability, T/C (second compound 0.3 µM, first compound 0.0949 µM): 40.4% | viability, T/C (second compound 0.3 µM, first compound 0.3 µM): 17.5% | viability, T/C (second compound 0.949 µM, first compound 0.000949 µM): 98.2% | viability, T/C (second compound 0.949 µM, first compound 0.003 µM): 89.3% | viability, T/C (second compound 0.949 µM, first compound 0.00949 µM): 80.6% | viability, T/C (second compound 0.949 µM, first compound 0.03 µM): 70.8% | viability, T/C (second compound 0.949 µM, first compound 0.0949 µM): 43.4% | viability, T/C (second compound 0.949 µM, first compound 0.3 µM): 19.1% | viability, T/C (second compound 3 µM, first compound 0.000949 µM): 102% | viability, T/C (second compound 3 µM, first compound 0.003 µM): 103% | viability, T/C (second compound 3 µM, first compound 0.00949 µM): 95.6% | viability, T/C (second compound 3 µM, first compound 0.03 µM): 81% | viability, T/C (second compound 3 µM, first compound 0.0949 µM): 44% | viability, T/C (second compound 3 µM, first compound 0.3 µM): 13.6%

IC50 (second compound 0.03 µM): > 100 nM | IC50 (second compound 0.0949 µM): > 100 nM | IC50 (second compound 0.3 µM): > 100 nM | IC50 (second compound 0.949 µM): > 100 nM | IC50 (second compound 3 µM): > 100 nM
SMILES: NC1CCC(NC2CC2c2ccccc2)CC1 (stereo not given) + CCN1C(C(=O)NC23CCC(C(=O)O)(CC2)CC3)C(c2cccc(Cl)c2F)C2(C(=O)Nc3cc(Cl)ccc32)C12CCCCC2
viability, T/C (second compound 0.03 µM, first compound 0.000316 µM): 95.8% | viability, T/C (second compound 0.03 µM, first compound 0.001 µM): 95.3% | viability, T/C [1]: 89.8% | viability, T/C [2]: 85.2% | viability, T/C [3]: 112% | viability, T/C [4]: 97.9% | viability, T/C (second compound 0.0949 µM, first compound 0.000316 µM): 99.7% | viability, T/C (second compound 0.0949 µM, first compound 0.001 µM): 93.4% | viability, T/C [5]: 99% | viability, T/C [6]: 104% | viability, T/C [7]: 92.5% | viability, T/C [8]: 95% | viability, T/C (second compound 0.3 µM, first compound 0.000316 µM): 96.6% | viability, T/C (second compound 0.3 µM, first compound 0.001 µM): 91.3% | viability, T/C [9]: 94.7% | viability, T/C [10]: 88.7% | viability, T/C [11]: 96.5% | viability, T/C [12]: 82.2% | viability, T/C (second compound 0.949 µM, first compound 0.000316 µM): 91% | viability, T/C (second compound 0.949 µM, first compound 0.001 µM): 91.5% | viability, T/C [13]: 85.7% | viability, T/C [14]: 87.5% | viability, T/C [15]: 90.9% | viability, T/C [16]: 92.1% | viability, T/C (second compound 3 µM, first compound 0.000316 µM): 98.3% | viability, T/C (second compound 3 µM, first compound 0.001 µM): 98% | viability, T/C [17]: 93.7% | viability, T/C [18]: 91% | viability, T/C [19]: 83.6% | viability, T/C [20]: 96.6%
